# US11485714B2, “Hydroxyethylamine-based piperazine compounds, and methods of producing and using the same for treating disease” (National Institute of Immunology, priority 2020, dated 2022)
# Where two headings read alike, the source gives them in different places. Marks after values point to notes of the source that are not given here.
# What was measured:
# [1] = system: P. falciparum CQ-sensitive (Pf3D7); test: SYBR Green I assay, asynchronous cultures, CQ-sensitive clone; format: cell-based; conditions: Plasmodium falciparum
# Description: Initially, antimalarial activity of Compound I was assessed on asynchronous cultures of P. falciparum sensitive (Pf3D7) clone using the SYBR Green assay. […] DMSO was used as a vehicle control, CQ (Chloroquine), DOX (Doxycycline) and DHA (Dihydroartemisinin).
# [2] = system: P. falciparum CQ-resistant (PfDd2); test: SYBR Green I assay, asynchronous cultures, CQ-resistant clone; format: cell-based; conditions: Plasmodium falciparum
# [3] = system: Plasmodium berghei NK-65 (chloroquine-resistant); test: In vivo blood stage mouse model, modified Peters four-day suppressive test
# Description: Specifically, a murine model of malaria was developed wherein thirty healthy Swiss albino mice were inoculated intraperitoneally with 1×10^7 Plasmodium berghei NK-65 (chloroquine-resistant) infected red blood cells (RBCs) suspended in RPMI 1640 medium (commercially available from Thermo Fisher Scientific Inc.; 200 μL). A first set of the infected mice was treated each day with a single dose of 50 mg/kg of Compound I, and a second set was not treated. The survival of the mice was monitored to day 30 post-infection using a Kaplan-Meier survival analysis, and the statistical difference in animal survival was analyzed by a log rank test. Representative data for the percent parasitemia for untreated mice (control) and mice treated with Compound I are shown in Table 4 and FIG. 2A and FIG. 2B.
# Activity of Compound I (Calxinin) was tested using a slightly modified version of Peter's 4-day suppressive test: initial infection of mice with P. berghei parasites, followed one dose 50 mg/kg of drug treatment, followed by monitoring of parasitemia as well as external signs of disease progression for up to 10 days.
# 10^7 Plasmodium berghei NK-65 (CQ-resistant) were administered by i.p into Swiss albino mice (6 mice/group). Infected mice were either treated with Compound I (Calxinin) or injected with DMSO alone (untreated vehicle control). […] The survival of the mice was followed up to day 30 post-infection using Kaplan-Meier survival analysis (FIG. 6B). Animal survival was analyzed by a log rank test.
# [4] = system: P. berghei ANKA sporozoites; test: Liver-stage infection in mice by mosquito bites, treatment and survival; format: in vivo
# Description: [1] Liver-stage infection in mice, treatment and survival assay: GFP-expressing P. berghei ANKA were grown in Anopheles stephensi mosquitoes in the insectary at National Institute of Immunology (New Delhi, India). Sporozoite count per salivary gland and infectivity was determined before the experimental infection of mice by the mosquito bites. Briefly, anaesthetized mice were exposed to a cage of sporozoite carrying starved mosquitoes (100 mosquito/5 mouse) for 15 minutes with intermittent disturbing of mosquito every 2-3 minute in order to encourage biting and injection of more sporozoite. Biting was done at 22+1° C. and dark condition maintained in an incubator. First dose (10 mg/Kg) was given 24 hours before the infection, second dose was given two hours post sporozoite challenge (biting) drug was given intraperitonially (I.P). Remaining dosages were given 24 h post challenge.
# [2] For calculating parasite load, liver of experimental mice were isolated 50 h post infection. Mice were anesthetized, abdominal area sterilized with 70% ethanol and liver dissected out. Liver was homogenized in precold denaturating solution. RNAs were isolated from the homogenized sample followed by Real Time polymerase chain reaction (PCR).
# Prompted by the notable in vitro liver stage activity, mice were infected with sporozoites through mosquito bites to test the efficacy of Compound I on liver stage infection in mouse models. The infected mice were treated with fixed dose of 10 mg/kg for three days. Liver stage P. berghei parasites mature into merozoites in about 55 hours. […] To understand the pre-patient period and delay, the starting of blood stage parasite infection was monitored after three days post challenge by observing Giemsa stained smears. […] Single day delay in blood stage infection corresponds to about 10-fold decrease in liver parasite burden. Experimental mice were kept for survival studies after treatment with Compound 1 (10 mg/kg) and death day was noted.
# The percentage of parasitemia remained low until day 7 post-sporozoite challenges.
# [5] = system: human T-type calcium channel; test: Whole cell patch clamp in HEK 293 cells; format: cell-based; conditions: increasing concentrations up to 1 microMolar
# Description: These currents were measured with the Patch clamp method in the “whole cell” configuration. In this configuration, the total currents that pass through all the calcium channels present in the plasma membrane are measured. In this case, it is measured in HEK cells, which constitutively express the human T type Calcium channel. In this case, the internal solutions contain the Cs+ instead of K+, thus blocking the K+ channels and the external one contains TEA an external channel blocker of K. This way the only currents that can develop in these cells are that of T type Calcium channels. This calcium channel is a voltage dependent channel, which is characterized by activating at membrane potentials that are more negative than L-type channels and by rapidly inactivating. […] This is the characteristic of the human T type calcium channel.
# parasitized RBC = test: Calcium levels in parasitized RBC; format: cell-based; conditions: 10 μM, within a few seconds, preliminary
# Description: No difference in the activity of the Calcium T Channel was observed under control conditions and with increasing concentrations of the Calxinin molecule, there is no difference in the amplitude of the calcium channel currents, nor in the dependence with the membrane potential of calcium channel activation up to 1 microMolar, that is […] higher than the IC50 to kill the parasite. Human T-type calcium channel currents were measured with the Patch clamp on the “whole cell” configuration in HEK cells constitutively expressing human T type Calcium channel. […] As shown, in FIG. 9 no difference in the amplitude of the calcium channel currents, nor in the dependence with the membrane potential of calcium channel activation even at 11 times the IC50 concentration. Preliminary results of parasitized RBC treated with CQ (I0 μM)+DMSO (negative control) and treated Compound I (10 μM, data not shown) were generated.
# [6] = In vivo acute toxicity study and pathological examination; set-up: species or system BALB/C mice
# Text: Again mice were randomly divided in two groups. Each group consisted of 3 mice.
# Mice were divided into two groups of three mice. […] Again Mice were randomly divided in two groups. Each group consisted of 3 mice. […] Serum was taken for biochemistry studies.
structure (smiles),measurement,setting,value
NC(Cc1ccccc1)C(O)CN1CCN(Cc2ccc(C(F)(F)F)cc2)CC1 (stereo not shown) [Compound I],IC50,"[1]; 3D7, read-out: IC50 against asexual stages, drug sensitive (CQ-sensitive) 3D7, text",88 nM
same,IC50,"[1]; 72 h, read-out: Pf3D7 IC50, nM (±SD), asynchronous cultures, 37° C., 72 hours, SYBR Green I",90 nM
same,IC50,"[1]; strain not specified, read-out: IC50 required for killing the parasite",< 90 nM
same,IC50,"[2]; 72 h, read-out: PfDd2 IC50, nM (±SD)",88 nM
same,IC50,"[2]; DD2, read-out: IC50 against asexual stages, drug resistant (CQ-resistant) DD2",88 nM
same,IC50,[2]; read-out: mean half maximal inhibitory concentration (IC50) for PfDd2,88 nM
same,activity against mixed blood stages,"[3]; 50 mg/kg/day (single dose), NK64 strain",significant activity
same,Percent Parasitemia Day 3,"[3]; Table 4, 50 mg/kg each day",0.21 ** (P < 0.001)
same,Percent Parasitemia Day 7,"[3]; Table 4, 50 mg/kg each day",2.45 * (P < 0.03)
same,Percent Parasitemia Day 10,"[3]; Table 4, 50 mg/kg each day",12.3 * (P < 0.01)
same,% Parasitemia Day 3,"[3]; Table 5, one dose 50 mg/kg",0.21 ** (P < 0.001) %
same,% Parasitemia Day 7,"[3]; Table 5, one dose 50 mg/kg",2.45 * (P < 0.03) %
same,% Parasitemia Day 10,"[3]; Table 5, one dose 50 mg/kg",12.3 * (P < 0.01) %
same,reduction in parasite load,"[3]; single dose 10 mg/kg, P. berghei NK64, mixed blood stage parasites",30%
same,Mean survival time (MST),[4]; 10 mg/kg,about 9 days
same,decrease in liver parasite burden corresponding to the delay,[4]; 10 mg/kg,about 10 fold
same,delay in the prepatent period,[4]; 10 mg/kg,One day's delay
same,inhibition of liver stage infection in mice,"[4]; 10 mg/kg for three days, I.P",30%
same,"activity of the Calcium T Channel (current amplitude, voltage dependence of activation)",[5],No difference
same,calcium levels of packed red blood cells (pRBCs),parasitized RBC,changes in the calcium levels
same,"pathological examination of liver, kidney, stomach",[6]; 300 mg/kg oral for four consecutive days,"does not indicate an increase or decrease of Kuepfer cells in the liver, loss of structural integrity in the kidney or lining of stomach"
same,toxicity overall,[6]; 1200 mg/kg (300 mg/kg for four consecutive days),no indication of toxicity
same,behavior,[6]; oral,no behavior changes were observed
same,body weight,[6]; oral,remained constant
same,motor and feeding activities,[6]; oral,normal
